From patent US6747027B1, “Thiol sulfonamide metalloprotease inhibitors” (Pharmacia Corporation, priority 1996, dated 2004)

Assays:
recombinant human MMP-13 = target: T1, recombinant human MMP-13 (Homo sapiens, UniProt P45452); test: In vitro metalloprotease inhibition, fluorogenic peptide assay (MMP-13); format: biochemical; details: recombinant human MMP-13, APMA activated; fluorogenic MCA peptide substrate 4 uM; pH 7.5, room temperature
T1 construct: made in house
How it was run: (§1)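 APMA-activated recombinant human MMP-13 (baculovirus-expressed) and MMP-1 (HT-1080-expressed) preincubated with inhibitor 10 min at room temperature in Tris/NaCl/CaCl2 buffer, pH 7.5, 1% DMSO final. MCA-PLGL-Dpa-AR-NH2 substrate at 4 uM final; cleavage read as fluorescence (ex 328/em 415 nm). IC50 from fluorescence reduction versus inhibitor concentration.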

recombinant human MMP-1 = target: T2, recombinant human MMP-1 (Homo sapiens, UniProt P03956); test: In vitro metalloprotease inhibition, fluorogenic peptide assay (MMP-1); format: biochemical; details: recombinant human MMP-1, APMA activated; fluorogenic MCA peptide substrate 4 uM; pH 7.5, room temperature
T2 construct: made in house; host or cells: transfected HT-1080 cells (provided by Dr. Howard Welgus, Washington University)
T2 sequence (P03956 100-469): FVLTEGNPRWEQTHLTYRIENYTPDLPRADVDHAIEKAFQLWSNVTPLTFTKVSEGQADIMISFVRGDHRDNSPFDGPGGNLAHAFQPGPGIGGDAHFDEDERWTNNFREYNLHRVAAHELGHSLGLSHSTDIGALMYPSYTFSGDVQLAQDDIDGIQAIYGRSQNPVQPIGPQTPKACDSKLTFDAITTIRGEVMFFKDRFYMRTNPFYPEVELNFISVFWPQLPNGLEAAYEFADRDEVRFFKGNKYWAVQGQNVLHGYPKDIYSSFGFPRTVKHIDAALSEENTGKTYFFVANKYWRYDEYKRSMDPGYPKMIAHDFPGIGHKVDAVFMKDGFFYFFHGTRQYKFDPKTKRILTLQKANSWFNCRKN
How it was run: as §1

[1] = tested on: angiogenesis in the cornea of a mouse; test: In vivo angiogenesis assay (corneal micropocket assay, bFGF pellet); details: C57Bl/6 female mouse, 50 mg/kg bid, po, scored at day five
Protocol: The study of angiogenesis depends on a reliable and reproducible model for the stimulation and inhibition of a neovascular response. The corneal micropocket assay provides such a model of angiogenesis in the cornea of a mouse. See, A Model of Angiogenesis in the Mouse Cornea; Kenyon, B M, et al., Investigative Ophthalmology & Visual Science, July 1996, Vol. 37, No. 8.
In this assay, uniformly sized Hydron™ pellets containing bFGF and sucralfate were prepared and surgically implanted into the stroma mouse cornea adjacent to the temporal limbus. […]
Mice were dosed on a daily basis for the duration of the assay. […] At day five, the degree of angiogenic inhibition was scored by viewing the neovascular progression with a slit lamp microscope.
The mice were anesthetized and the studied eye was once again proptosed. The maximum vessel length of neovascularization, extending from the limbal vascular plexus toward the pellet was measured. In addition, the contiguous circumferential zone of neovascularization was measured as clock hours, where 30 degrees of arc equals 1 clock hour. The area of angiogenesis was calculated as [formula]
where the vessel length is measured in millimeters.
The studied mice were thereafter compared to control mice and the difference in the area of neovascularization was recorded.

| Structure (SMILES) | IC50 (recombinant human MMP-13) [nM] | IC50 (recombinant human MMP-1) [µM] | inhibition of area of neovascularization versus control mice [1] [%] |
| --- | --- | --- | --- |
| CCOc1ccc(S(=O)(=O)N(C)[C@H](C)CS)cc1 [Example 38C, N-(2-Mercapto-1R-methylethyl)-N-methyl-4-ethoxybenzenesulfonamide] | 31 | 2.5 | – |
| C[C@H](CS)NS(=O)(=O)c1ccc(OC(F)(F)F)cc1 [Example 75, N-(2-mercapto-1R-methylethyl)-4-(trifluoromethoxy)-benzenesulfonamide] | 1000 | 5 | – |
| CCCCOc1ccc(S(=O)(=O)N[C@@H](CS)C(=O)N(C)C)cc1 [Example 178] | 300 | > 10 | – |
| NC(=O)[C@H](CS)NS(=O)(=O)c1ccc(I)cc1 [Example 95, N-(4-Iodophenyl)sulfonyl-L-cysteine-NH2] | 20 | 0.8 | – |
| CCCCOc1ccc(S(=O)(=O)N[C@H](C)CS)cc1 [Example 15, N-(2-Mercapto-1R-methylethyl)-4-(n-butoxy)benzenesulfonamide] | 75 | > 10 | – |
| C[C@H](CS)N(C)S(=O)(=O)c1ccc2c(c1)OCO2 [Example 20C, N-(2-Mercapto-1R-methylethyl)-N-methyl-5-(1,3-benzodioxol-5-yl)sulfonamide] | 110 | 3 | – |
| CCCCCc1ccc(S(=O)(=O)N[C@@H](CS)C(N)=O)cc1 [Example 96, N-[4-(n-Pentyl)-phenyl]sulfonyl-L-cysteine-NH2] | 17 | > 10 | – |
| CCCCCc1ccc(S(=O)(=O)N(CCN2CCOCC2)[C@H](C)CS)cc1 [Example 54, N-(2-Mercapto-1R-methylethyl)-N-[2-(4-morpholino)ethyl]-4-(n-pentyl)benzenesulfonamide] | 7 | 9 | – |
| COc1ccc(S(=O)(=O)N[C@H](C)CS)cc1OC [Example 100] | > 10000 | > 10 | – |
| CCCCOc1ccc(S(=O)(=O)N[C@@H](CS)C(=O)NCCN2CCOCC2)cc1 [Example 172] | 250 | > 10 | – |

The next lines start with results.

| IC50 (recombinant human MMP-13) [nM] | IC50 (recombinant human MMP-1) [µM] | Structure (SMILES) | inhibition of area of neovascularization versus control mice [1] [%] |
| --- | --- | --- | --- |
| 1.1 | > 10 | NC(=O)[C@H](CS)N(CCN1CCOCC1)S(=O)(=O)c1ccc(NC(=O)c2ccccc2)cc1 [Example 218, N-(4-benzoylamino)phenylsulfonyl-N-(4-(morpholino-ethyl))-L-cysteine amide] | 37 |
| 1.5 | > 10 | NC(=O)[C@H](CSSC[C@@H](C(N)=O)N(CCN1CCOCC1)S(=O)(=O)c1ccc(Oc2ccccc2)cc1)N(CCN1CCOCC1)S(=O)(=O)c1ccc(Oc2ccccc2)cc1 [Example 213] | – |
| 1.1 | 5.3 | NC(=O)[C@H](CS)N(CCN1CCOCC1)S(=O)(=O)c1ccc(NC(=O)c2ccc(Br)cc2)cc1 [Example 222, N-(4-(4′-bromobenzoyl)amino)phenylsulfonyl-N-(4-(morpholinoethyl))-L-cysteine amide] | – |
| > 10000 | > 10 | C[C@H](CS)NS(=O)(=O)c1ccc([N+](=O)[O-])cc1 [Example 192] | – |
